SMILES strings stand for the structures.

Common to all, as to parameters: scale not given: the % may be the effect or the level left
Assay [1] concerns the target Aurora kinase B (Homo sapiens) (UniProt Q96GD4). The assay is described as follows: Inhibition of human Aurora B assessed as enzyme activity at 1 uM using H-LRRASLG as substrate preincubated for 20 mins followed by [gamma-33P]-ATP addition and measured after 120 mins by radiometric Hot-SpotSM Kinase assay relative to control.
In assay [2] the target is T1, Mitogen-activated protein kinase kinase kinase 12 (Homo sapiens) (UniProt Q12852).
T1 sequence (whole entry): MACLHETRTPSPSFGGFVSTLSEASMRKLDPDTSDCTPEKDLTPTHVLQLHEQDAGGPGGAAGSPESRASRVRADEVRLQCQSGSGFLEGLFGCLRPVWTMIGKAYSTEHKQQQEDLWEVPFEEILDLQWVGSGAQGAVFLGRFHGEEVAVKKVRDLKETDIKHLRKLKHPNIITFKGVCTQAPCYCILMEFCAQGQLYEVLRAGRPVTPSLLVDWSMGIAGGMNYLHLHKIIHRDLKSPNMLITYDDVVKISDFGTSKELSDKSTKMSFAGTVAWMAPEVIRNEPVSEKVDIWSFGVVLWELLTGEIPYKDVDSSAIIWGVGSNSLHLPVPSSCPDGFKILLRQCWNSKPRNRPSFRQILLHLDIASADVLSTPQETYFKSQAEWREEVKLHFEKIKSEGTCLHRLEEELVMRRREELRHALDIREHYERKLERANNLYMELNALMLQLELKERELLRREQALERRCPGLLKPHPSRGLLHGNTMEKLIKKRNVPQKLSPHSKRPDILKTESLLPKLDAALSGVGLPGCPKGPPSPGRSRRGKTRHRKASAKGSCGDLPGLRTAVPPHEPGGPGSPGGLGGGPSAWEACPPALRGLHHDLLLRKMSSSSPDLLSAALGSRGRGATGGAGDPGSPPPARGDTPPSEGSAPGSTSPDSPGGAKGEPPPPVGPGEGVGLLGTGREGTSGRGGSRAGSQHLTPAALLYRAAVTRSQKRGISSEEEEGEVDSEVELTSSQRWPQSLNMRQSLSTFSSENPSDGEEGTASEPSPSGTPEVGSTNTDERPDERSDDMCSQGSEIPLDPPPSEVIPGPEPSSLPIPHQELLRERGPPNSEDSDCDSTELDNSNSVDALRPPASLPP
Nature of the assay: Inhibition of human DLK/MAP3K12 assessed as enzyme activity at 1 uM using myelin basic protein as substrate preincubated for 20 mins followed by [gamma-33P]-ATP addition and measured after 120 mins by radiometric Hot-SpotSM Kinase assay relative to control.

Assay [3] has as its target T2, Ephrin type-A receptor 1 (Homo sapiens) (UniProt P21709).
T2 sequence (whole entry): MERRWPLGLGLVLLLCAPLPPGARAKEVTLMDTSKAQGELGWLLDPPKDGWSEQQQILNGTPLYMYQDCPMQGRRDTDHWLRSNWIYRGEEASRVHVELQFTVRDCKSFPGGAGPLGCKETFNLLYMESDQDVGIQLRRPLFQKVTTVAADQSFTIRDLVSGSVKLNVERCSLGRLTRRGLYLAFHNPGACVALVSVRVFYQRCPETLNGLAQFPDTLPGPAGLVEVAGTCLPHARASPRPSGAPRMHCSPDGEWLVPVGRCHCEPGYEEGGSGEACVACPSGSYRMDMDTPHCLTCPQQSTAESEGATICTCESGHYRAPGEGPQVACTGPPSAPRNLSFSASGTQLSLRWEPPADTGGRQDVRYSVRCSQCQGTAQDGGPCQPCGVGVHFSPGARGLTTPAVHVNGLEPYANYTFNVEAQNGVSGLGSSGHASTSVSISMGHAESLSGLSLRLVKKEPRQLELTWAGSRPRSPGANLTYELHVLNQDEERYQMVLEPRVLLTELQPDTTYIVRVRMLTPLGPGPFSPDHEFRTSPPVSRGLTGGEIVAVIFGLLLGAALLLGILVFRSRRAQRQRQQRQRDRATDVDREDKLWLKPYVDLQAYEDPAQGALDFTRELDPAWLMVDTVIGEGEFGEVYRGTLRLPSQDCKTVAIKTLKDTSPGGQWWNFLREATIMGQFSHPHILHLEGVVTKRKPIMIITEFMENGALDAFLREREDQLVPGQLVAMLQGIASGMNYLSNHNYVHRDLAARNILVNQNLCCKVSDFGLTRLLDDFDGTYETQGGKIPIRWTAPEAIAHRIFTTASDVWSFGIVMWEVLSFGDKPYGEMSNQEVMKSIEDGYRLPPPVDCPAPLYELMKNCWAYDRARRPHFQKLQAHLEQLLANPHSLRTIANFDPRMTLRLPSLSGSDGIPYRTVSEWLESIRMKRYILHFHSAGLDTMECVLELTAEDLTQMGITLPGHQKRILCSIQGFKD
Nature of the assay: Inhibition of human EPHA1 assessed as enzyme activity at 1 uM using poly[Glu:Tyr] (4:1) as substrate preincubated for 20 mins followed by [gamma-33P]-ATP addition and measured after 120 mins by radiometric Hot-SpotSM Kinase assay relative to control.

Assay [4] has as its target T3, NUAK family SNF1-like kinase 2 (Homo sapiens) (UniProt Q9H093).
T3 sequence (whole entry): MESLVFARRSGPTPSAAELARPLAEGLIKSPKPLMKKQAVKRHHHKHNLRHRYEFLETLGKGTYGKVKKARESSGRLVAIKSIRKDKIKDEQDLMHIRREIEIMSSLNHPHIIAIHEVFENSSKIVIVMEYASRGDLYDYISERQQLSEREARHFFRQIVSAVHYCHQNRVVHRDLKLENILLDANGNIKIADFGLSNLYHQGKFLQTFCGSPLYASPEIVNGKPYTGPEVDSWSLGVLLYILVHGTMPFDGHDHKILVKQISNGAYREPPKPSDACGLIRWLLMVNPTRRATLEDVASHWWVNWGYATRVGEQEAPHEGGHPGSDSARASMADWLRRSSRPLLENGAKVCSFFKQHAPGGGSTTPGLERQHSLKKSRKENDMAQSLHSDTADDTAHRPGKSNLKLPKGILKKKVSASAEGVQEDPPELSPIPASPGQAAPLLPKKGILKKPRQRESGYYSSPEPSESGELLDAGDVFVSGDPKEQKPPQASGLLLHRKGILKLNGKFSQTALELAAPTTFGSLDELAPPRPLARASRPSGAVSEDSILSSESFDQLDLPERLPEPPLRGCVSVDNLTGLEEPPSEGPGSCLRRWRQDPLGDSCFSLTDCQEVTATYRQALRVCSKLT
Nature of the assay: Inhibition of human SNARK assessed as enzyme activity at 1 uM using KKKVSRSGLYRSPSMPENLNRPR as substrate preincubated for 20 mins followed by [gamma-33P]-ATP addition and measured after 120 mins by radiometric Hot-SpotSM Kinase assay relative to control.

Sequence of Aurora kinase B (Homo sapiens) (Q96GD4 whole entry): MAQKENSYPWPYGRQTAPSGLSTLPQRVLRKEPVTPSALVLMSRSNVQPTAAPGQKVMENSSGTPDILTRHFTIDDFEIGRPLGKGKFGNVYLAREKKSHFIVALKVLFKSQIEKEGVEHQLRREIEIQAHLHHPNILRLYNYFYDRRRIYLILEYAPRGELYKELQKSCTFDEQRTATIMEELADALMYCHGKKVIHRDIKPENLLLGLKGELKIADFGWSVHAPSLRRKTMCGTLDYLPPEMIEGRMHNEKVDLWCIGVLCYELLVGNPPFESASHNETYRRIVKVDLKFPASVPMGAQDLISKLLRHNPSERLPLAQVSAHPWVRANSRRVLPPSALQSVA

Consider `C[C@H](Nc1ncnc2nc[nH]c12)c1cc2cccc(Cl)c2c(=O)n1-c1ccccc1`, for which the Activity in assay [1] came out at 95.6%; in assay [2], 107%; in assay [3], 95.2%; in assay [4], 93.2%.

`CC[C@H](Nc1ncnc2[nH]cnc12)c1nc2cccc(F)c2c(=O)n1-c1ccccc1`: the Activity in assay [1] was 95.6%; in assay [2], 110%; in assay [3], 91.4%; in assay [4], 93.2%.

As for `CC(C)Oc1ccc(-c2nn([C@@H](C)c3oc4ccc(F)cc4c(=O)c3-c3cccc(F)c3)c3ncnc(N)c23)cc1F` [UMBRALISIB], the Activity worked out at 97.2% in assay [1], 127% in assay [2], 96.4% in assay [3] and 95.9% in assay [4].
